Assay results taken from PubChem BioAssay (NCI).
Where “and” joins values, the source holds several entries; their conditions need not be identical. Identical values can stand only once.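 The compound was tested at five concentrations on cells cultured in 96-well plates, with a 48-hour exposure period. The concentration for 50% growth inhibition is given as GI50. Definition used: TGI = concentration required for complete inhibition of growth.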

Columns and labels:
Assay in all cases: NCI tumour cell line growth inhibition, 48 h
[1] = tested on: 786-0 renal
[2] = tested on: A498 renal
[3] = tested on: A549 NSCLC
[4] = tested on: ACHN renal
[5] = tested on: BT-549 breast
[6] = tested on: CAKI-1 renal
[7] = tested on: CCRF-CEM leukemia
[8] = tested on: COLO 205 colon
[9] = tested on: DU-145 prostate
[10] = tested on: EKVX NSCLC
[11] = tested on: HCC-2998 colon
[12] = tested on: HCT-116 colon
[13] = tested on: HCT-15 colon
[14] = tested on: HL-60(TB) leukemia
[15] = tested on: HOP-62 NSCLC
[16] = tested on: HOP-92 NSCLC
[17] = tested on: HS 578T breast
[18] = tested on: HT29 colon
[19] = tested on: IGROV1 ovarian
[20] = tested on: K-562 leukemia
[21] = tested on: KM12 colon
[22] = tested on: LOX IMVI melanoma
[23] = tested on: M14 melanoma
[24] = tested on: MALME-3M melanoma
[25] = tested on: MCF7 breast
[26] = tested on: MDA-MB-231 breast
[27] = tested on: MDA-MB-435
[28] = tested on: MDA-N
[29] = tested on: MOLT-4 leukemia
[30] = tested on: NCI-H226 lung
[31] = tested on: NCI-H23 lung
[32] = tested on: NCI-H460 lung
[33] = tested on: NCI-H522 lung
[34] = tested on: NCI/ADR-RES ovarian
[35] = tested on: OVCAR-3 ovarian
[36] = tested on: OVCAR-4 ovarian
[37] = tested on: OVCAR-5 ovarian
[38] = tested on: OVCAR-8 ovarian
[39] = tested on: PC-3 prostate
[40] = tested on: RPMI-8226 leukemia
[41] = tested on: RXF 393 renal
[42] = tested on: SF-268 CNS
[43] = tested on: SF-295 CNS
[44] = tested on: SF-539 CNS
[45] = tested on: SK-MEL-2 melanoma
[46] = tested on: SK-MEL-28 melanoma
[47] = tested on: SK-MEL-5 melanoma
[48] = tested on: SK-OV-3 ovarian
[49] = tested on: SN12C renal
[50] = tested on: SNB-19 CNS
[51] = tested on: SNB-75 CNS
[52] = tested on: SR leukemia
[53] = tested on: SW-620 colon
[54] = tested on: T-47D breast
[55] = tested on: TK-10 renal
[56] = tested on: U251 CNS
[57] = tested on: UACC-257 melanoma
[58] = tested on: UACC-62 melanoma
[59] = tested on: UO-31 renal

For `Cc1nc2c(Br)cc(Br)cc2c(=O)n1-c1ccccc1NC1OC(CO)C(O)C(O)C1O` (stereo unspecified), the TGI [1] was over 100 µM, the TGI [2] was over 100 µM and the GI50 [3] was 27.8 µM and > 100 µM. It also gave a TGI [3] of over 100 µM, a TGI [4] of over 100 µM and a TGI [5] of over 100 µM. For the same compound, the TGI [6] was over 100 µM, the TGI [7] was over 100 µM and the TGI [8] was over 100 µM. The TGI [9] was over 100 µM, the TGI [10] was over 100 µM and the TGI [11] was over 100 µM. It also gave a TGI [12] of over 100 µM, a TGI [13] of over 100 µM and a TGI [14] of over 100 µM. The TGI [15] was over 100 µM, the TGI [16] was over 100 µM and the TGI [17] was over 100 µM. It also gave a TGI [18] of over 100 µM, a TGI [19] of over 100 µM and a TGI [20] of over 100 µM. For the same compound, the TGI [21] was over 100 µM, the TGI [22] was over 100 µM and the TGI [23] was over 100 µM. For the same compound, the TGI [24] was over 100 µM, the TGI [25] was over 100 µM and the TGI [26] was over 100 µM. For the same compound, the TGI [27] was over 100 µM, the TGI [28] was over 100 µM and the TGI [29] was over 100 µM. For the same compound, the TGI [30] was over 100 µM, the TGI [31] was over 100 µM and the TGI [32] was over 100 µM. The TGI [33] was over 100 µM, the TGI [34] was over 100 µM and the TGI [35] was over 100 µM. It also gave a TGI [36] of over 100 µM, a TGI [37] of over 100 µM and a TGI [38] of over 100 µM. It also gave a TGI [39] of over 100 µM, a TGI [40] of over 100 µM and a TGI [41] of over 100 µM. It also gave a TGI [42] of over 100 µM, a TGI [43] of over 100 µM and a TGI [44] of over 100 µM. For the same compound, the TGI [45] was over 100 µM, the TGI [46] was over 100 µM and the TGI [47] was over 100 µM. It also gave a TGI [48] of over 100 µM, a TGI [49] of over 100 µM and a TGI [50] of over 100 µM. For the same compound, the TGI [51] was over 100 µM, the GI50 [52] was > 100 µM and 44.8 µM and the TGI [52] was over 100 µM. The TGI [53] was over 100 µM, the TGI [54] was over 100 µM and the TGI [55] was over 100 µM. The TGI [56] was over 100 µM, the TGI [57] was over 100 µM and the TGI [58] was over 100 µM. For the same compound, the TGI [59] was over 100 µM.

Work on `CC1OC(OC2C(O[C@H]3CC[C@@]4(C)C(=CC[C@H]5[C@@H]6C[C@@H]7O[C@]8(CC[C@@H](C)CO8)[C@@H](C)[C@@H]7[C@@]6(C)CC[C@@H]54)C3)OC(CO)C(O)C2OC2OC(CO)C(O)C(O)C2O)C(O)C(O)C1O` (stereo partly specified) yielded a TGI [1] of 2.97 µM, a TGI [2] of 3.15 µM and a TGI [3] of 3.35 µM. The TGI [4] was 3.29 µM, the TGI [5] was 4.73 µM and the TGI [6] was 5.07 µM. The TGI [7] was over 100 µM, the TGI [8] was 3.41 µM and the TGI [9] was 4.09 µM. The TGI [10] was over 21.9 µM, the TGI [11] was 3.34 µM and the TGI [13] was 4.03 µM. The TGI [15] was 4.21 µM, the TGI [16] was 3.68 µM and the TGI [17] was 3.74 µM. For the same compound, the TGI [18] was over 100 µM, the TGI [19] was 3.3 µM and the TGI [20] was over 100 µM. It also gave a TGI [21] of 4.49 µM, a TGI [22] of 5.9 µM and a TGI [24] of 3.26 µM. For the same compound, the TGI [25] was 4.55 µM, the TGI [26] was 2.98 µM and the TGI [27] was 3.73 µM. It also gave a TGI [28] of 3.17 µM, a TGI [29] of over 23.3 µM and a TGI [31] of 3.44 µM. The TGI [33] was 3.42 µM, the TGI [34] was 4.93 µM and the TGI [35] was 2.69 µM. For the same compound, the TGI [36] was 3.31 µM, the TGI [37] was over 20.6 µM and the TGI [38] was over 100 µM. The TGI [39] was 3.55 µM, the TGI [41] was 4.43 µM and the TGI [42] was 3.7 µM. It also gave a TGI [43] of 4.41 µM, a TGI [44] of 5.23 µM and a TGI [45] of 3.45 µM. The TGI [46] was 3.68 µM, the TGI [47] was 4.36 µM and the TGI [48] was 3.19 µM. It also gave a TGI [50] of 3.46 µM, a TGI [51] of 3.7 µM and a TGI [52] of over 100 µM. The TGI [53] was 4.39 µM, the TGI [54] was 4.65 µM and the TGI [55] was 4.01 µM. The TGI [57] was 3.65 µM and the TGI [59] was 3.5 µM.
